Patent US9549556B2, “Macrocyclic picolinamides as fungicides” (DOW AGROSCIENCES LLC, priority 2013, dated 2017)
Where two headings read alike, the source gives them in different places.

Legend:
Septoria tritici = assay: Leaf blotch of wheat (SEPTTR) disease control on wheat seedlings; assay type: in vivo, Mycosphaerella graminicola (anamorph Septoria tritici); conditions: Zymoseptoria tritici, read-out: SEPTTR disease control rating (% Control); for pest or weed control at 100 ppm: high volume application; for pest or weed control at 121.5 g/ha: 121.5 g/H, low volume (track spray) application
Method: Evaluation of Fungicidal Activity: Leaf Blotch of Wheat (Mycosphaerella graminicola; Anamorph: Septoria tritici; Bayer Code […]) Technical grades of materials were dissolved in acetone, which were then mixed with nine volumes of water containing 110 ppm Triton X-100. The fungicide solutions were applied onto wheat seedlings using an automated booth sprayer to run-off. All sprayed plants were allowed to air dry prior to further handling. All fungicides were evaluated using the aforementioned method for their activity vs. all target diseases. Wheat leaf blotch and brown rust activity were also evaluated using track spray applications, in which case the fungicides were formulated as EC formulations, containing 0.1% Trycol 5941 in the spray solutions. Wheat plants (variety Yuma) were grown from seed in a greenhouse in 50% mineral soil/50% soil-less Metro mix until the first leaf was fully emerged, with 7-10 seedlings per pot. These plants were inoculated with an aqueous spore suspension of Septoria tritici either prior to or after fungicide treatments. After inoculation the plants were kept in 100% relative humidity (one day in a dark dew chamber followed by two to three days in a lighted dew chamber at 20° C.) to permit spores to germinate and infect the leaf. The plants were then transferred to a greenhouse set at 20° C. for disease to develop. When disease symptoms were fully expressed on the 1st leaves of untreated plants, infection levels were assessed on a scale of 0 to 100 percent disease severity. Percent disease control was calculated using the ratio of disease severity on treated plants relative to untreated plants.

Puccinia triticina = assay: Wheat brown rust (PUCCRT) disease control on wheat seedlings; assay type: in vivo; conditions: read-out: PUCCRT disease control rating (% Control); for pest or weed control at 100 ppm: high volume application; for pest or weed control at 121.5 g/ha: 121.5 g/H, low volume (track spray) application
Uncinula necator = assay: Grape powdery mildew (UNCINE) disease control; assay type: in vivo; conditions: 1 DP, 100 ppm
[1] = system: Colletotrichum lagenarium; assay: Cucumber anthracnose (COLLLA) disease control; assay type: in vivo, Glomerella lagenarium (anamorph Colletotrichum lagenarium); conditions: 1 DP, 100 ppm
Rhyncosporium secalis = assay: Barley scald (RHYNSE) disease control; assay type: in vivo; conditions: 1 DP, 100 ppm
[2] = system: Blumeria graminis f. sp. hordei; assay: Barley powdery mildew (ERYSGH) disease control; assay type: in vivo; conditions: 1 DP, 100 ppm
Alternaria solani = assay: Tomato early blight (ALTESO) disease control; assay type: in vivo; conditions: 1 DP, 100 ppm
Leptosphaeria nodorum = assay: Wheat glume blotch (LEPTNO) disease control; assay type: in vivo; conditions: 1 DP, 100 ppm
Cercospora beticola = assay: Leaf spot of sugar beets (CERCBE) disease control; assay type: in vivo; conditions: 1 DP, 100 ppm, sugar beet
Erysiphe cichoracearum = assay: Powdery mildew of cucumber (ERYSCI) disease control; assay type: in vivo; conditions: 1 DP, 100 ppm
Pyricularia oryzae = assay type: in vivo, Magnaporthe grisea (anamorph Pyricularia oryzae); conditions: 1 DP, 100 ppm, rice

Row | Compound | melting point [°C] | pest or weed control at 121.5 g/ha (Septoria tritici; 24 h, 1DP (1 Day Protectant)) [%] | pest or weed control at 121.5 g/ha (Septoria tritici; 72 h, 3DC (3 Day Curative)) [%] | pest or weed control at 121.5 g/ha (Puccinia triticina; 24 h, 1DP (1 Day Protectant)) [%] | pest or weed control at 121.5 g/ha (Puccinia triticina; 72 h, 3DC (3 Day Curative)) [%] | other results
1 | COc1ccnc(C(=O)N[C@H]2COC[C@H](OCc3ccccc3)[C@@H](CCC(C)C)[C@H](C)OC2=O)c1O [Compound 46] | 104 to 106 |  |  |  |  | pest or weed control at 100 ppm (Septoria tritici; 24 h, 1DP (1 Day Protectant)): > 70%; pest or weed control at 100 ppm (Septoria tritici; 72 h, 3DC (3 Day Curative)): < 70%; pest or weed control at 100 ppm (Puccinia triticina; 24 h, 1DP (1 Day Protectant)): > 70%; pest or weed control at 100 ppm (Puccinia triticina; 72 h, 3DC (3 Day Curative)): > 70%
2 | COc1ccnc(C(=O)N[C@H]2COC[C@H](OCC(C)C)[C@@H](Cc3ccccc3)[C@H](C)OC2=O)c1OC(C)=O [Compound 79] | 52 to 57 | > 70 | > 70 | > 70 | > 70 | 
3 | CC(C)CC[C@H]1[C@H](C)OC(=O)[C@@H](NC(=O)OC(C)(C)C)COC[C@@H]1OC(=O)C1CC1 [Compound 49, (3S,7R,8S,9S)-3-((tert-butoxycarbonyl)amino)-8-isopentyl-9-methyl-2-oxo-1,5-dioxonan-7-yl cyclopropanecarboxylate] | 92 to 95 |  |  |  |  | 
4 | COc1ccnc(C(=O)N[C@H]2COC[C@H](OCC3CC3)[C@@H](Cc3ccccc3)[C@H](C)OC2=O)c1OC(C)=O [Compound 87] | 54 to 59 |  |  |  |  | pest or weed control at 100 ppm (Septoria tritici; 24 h, 1DP (1 Day Protectant)): > 70%; pest or weed control at 100 ppm (Septoria tritici; 72 h, 3DC (3 Day Curative)): > 70%; pest or weed control at 100 ppm (Puccinia triticina; 24 h, 1DP (1 Day Protectant)): > 70%; pest or weed control at 100 ppm (Puccinia triticina; 72 h, 3DC (3 Day Curative)): > 70%
5 | CC(C)CC[C@H]1[C@H](C)OC(=O)[C@@H](NC(=O)OC(C)(C)C)COC[C@@H]1O [Compound 66, tert-butyl ((3S,7R,8R,9S)-7-hydroxy-8-isopentyl-9-methyl-2-oxo-1,5-dioxonan-3-yl)carbamate] | 112 to 115 |  |  |  |  | 
6 | COc1ccnc(C(=O)N[C@H]2COC[C@H](OC(=O)C3CC3)[C@@H](CCC(C)C)[C@H](C)OC2=O)c1OCOC(C)=O [Compound 57] | 45 to 50 | < 70 | > 70 | > 70 | > 70 | 
7 | CC(C)CC[C@H]1[C@H](C)OC(=O)[C@@H](NC(=O)OC(C)(C)C)COC[C@@H]1OCc1ccccc1 [Compound 42] | 70 to 72 |  |  |  |  | 
8 | CCCO[C@H]1COC[C@H](NC(=O)c2nccc(OC)c2O)C(=O)O[C@@H](C)[C@@H]1CCC(C)C [Compound 53, 3-hydroxy-N-((3S,7R,8S,9S)-8-isopentyl-9-methyl-2-oxo-7-propoxy-1,5-dioxonan-3-yl)-4-methoxypicolinamide] | 54 to 57 |  |  |  |  | pest or weed control at 100 ppm (Septoria tritici; 24 h, 1DP (1 Day Protectant)): < 70%; pest or weed control at 100 ppm (Septoria tritici; 72 h, 3DC (3 Day Curative)): < 70%; pest or weed control at 100 ppm (Puccinia triticina; 24 h, 1DP (1 Day Protectant)): > 70%; pest or weed control at 100 ppm (Puccinia triticina; 72 h, 3DC (3 Day Curative)): > 70%
9 | CCCO[C@H]1COC[C@H](NC(=O)OC(C)(C)C)C(=O)O[C@@H](C)[C@@H]1CCC(C)C [Compound 39, tert-butyl ((3S,7R,8S,9S)-8-isopentyl-9-methyl-2-oxo-7-propoxy-1,5-dioxonan-3-yl)carbamate] | 74 to 77 |  |  |  |  | 
10 | COc1ccnc(C(=O)N[C@H]2COC[C@H](Oc3ccccc3)[C@@H](Cc3ccccc3)[C@H](C)OC2=O)c1O [Compound 77] | 49 to 54 |  |  |  |  | 
11 | COc1ccnc(C(=O)N[C@H]2COC[C@H](OCOCc3ccccc3)[C@@H](Cc3ccccc3)[C@H](C)OC2=O)c1O [Compound 72, N-((3S,7R,8S,9S)-8-benzyl-7-((benzyloxy)methoxy)-9-methyl-2-oxo-1,5-dioxonan-3-yl)-3-hydroxy-4-methoxypicolinamide] |  |  |  |  |  | pest or weed control at 100 ppm (Septoria tritici; 24 h, 1DP (1 Day Protectant)): < 70%; pest or weed control at 100 ppm (Septoria tritici; 72 h, 3DC (3 Day Curative)): < 70%; pest or weed control at 100 ppm (Puccinia triticina; 24 h, 1DP (1 Day Protectant)): > 70%; pest or weed control at 100 ppm (Puccinia triticina; 72 h, 3DC (3 Day Curative)): < 70%
12 | COc1ccnc(C(=O)N[C@H]2COC[C@H](Oc3ccccc3)[C@@H](CCC(C)C)[C@H](C)OC2=O)c1O [Compound 60] | 58 to 62 |  |  |  |  | pest or weed control at 100 ppm (Septoria tritici; 24 h, 1DP (1 Day Protectant)): > 70%; pest or weed control at 100 ppm (Septoria tritici; 72 h, 3DC (3 Day Curative)): < 70%; pest or weed control at 100 ppm (Puccinia triticina; 24 h, 1DP (1 Day Protectant)): > 70%; pest or weed control at 100 ppm (Puccinia triticina; 72 h, 3DC (3 Day Curative)): > 70%
13 | COc1ccnc(C(=O)N[C@H]2COC[C@H](OCC3CC3)[C@@H](Cc3ccc(F)cc3)[C@H](C)OC2=O)c1OCOC(C)=O [Compound 71] |  | > 70 | > 70 | > 70 | > 70 | 
14 | CCCC[C@H]1[C@H](C)OC(=O)[C@@H](NC(=O)c2nccc(OC)c2OCOC(C)=O)COC[C@@H]1OCC1CC1 [Compound 6] |  | > 70 | > 70 | > 70 | > 70 | UNCINE disease control rating (% Control) (Uncinula necator): A (>70); COLLLA disease control rating (% Control) [1]: A (>70); RHYNSE disease control rating (% Control) (Rhyncosporium secalis): A (>70); ERYSGH disease control rating (% Control) [2]: A (>70); ALTESO disease control rating (% Control) (Alternaria solani): B (≦70); LEPTNO disease control rating (% Control) (Leptosphaeria nodorum): A (>70); CERCBE disease control rating (% Control) (Cercospora beticola): A (>70); ERYSCI disease control rating (% Control) (Erysiphe cichoracearum): A (>70); PYRIOR disease control rating (% Control) (Pyricularia oryzae): A (>70)
15 | COc1ccnc(C(=O)N[C@H]2COC[C@H](Oc3ccccc3)[C@@H](Cc3ccccc3)[C@H](C)OC2=O)c1OCOC(C)=O [Compound 84] |  | > 70 | > 70 | > 70 | > 70 | 
16 | COc1ccnc(C(=O)N[C@H]2COC[C@H](Oc3ccccc3)[C@@H](Cc3ccccc3)[C@H](C)OC2=O)c1OC(C)=O [Compound 81] |  | > 70 | > 70 | > 70 | > 70 | 
17 | CCCC[C@H]1[C@H](C)OC(=O)[C@@H](NC(=O)c2nccc(OC)c2O)COC[C@@H]1OC(=O)C(C)C [Compound 58] |  |  |  |  |  | pest or weed control at 100 ppm (Septoria tritici; 24 h, 1DP (1 Day Protectant)): < 70%; pest or weed control at 100 ppm (Septoria tritici; 72 h, 3DC (3 Day Curative)): > 70%; pest or weed control at 100 ppm (Puccinia triticina; 24 h, 1DP (1 Day Protectant)): > 70%; pest or weed control at 100 ppm (Puccinia triticina; 72 h, 3DC (3 Day Curative)): < 70%
18 | CCCO[C@H]1COC[C@H](NC(=O)c2nccc(OC)c2OCOC(C)=O)C(=O)O[C@@H](C)[C@@H]1Cc1ccc(F)cc1 [Compound 62] |  | > 70 | > 70 | > 70 | > 70 | 
19 | CCCC[C@H]1[C@H](C)OC(=O)[C@@H](NC(=O)c2nccc(OC)c2OCOC(C)=O)COC[C@@H]1OCc1ccccc1 [Compound 40] |  | > 70 | > 70 | > 70 | > 70 | 
20 | COc1ccnc(C(=O)N[C@H]2COC[C@H](Oc3ccccc3)[C@@H](CCC(C)C)[C@H](C)OC2=O)c1OC(C)=O [Compound 47] |  | > 70 | > 70 | > 70 | < 70 | 
21 | COc1ccnc(C(=O)N[C@H]2COC[C@H](OCc3ccccc3)[C@@H](CCC(C)C)[C@H](C)OC2=O)c1OC(C)=O [Compound 67] | 55 to 61 | > 70 | > 70 | > 70 | > 70 | 
22 | CCCC[C@H]1[C@H](C)OC(=O)[C@@H](NC(=O)c2nccc(OC)c2O)COC[C@@H]1OCC1CC1 [Compound 3] |  |  |  |  |  | pest or weed control at 100 ppm (Septoria tritici; 24 h, 1DP (1 Day Protectant)): > 70%; pest or weed control at 100 ppm (Septoria tritici; 72 h, 3DC (3 Day Curative)): < 70%; pest or weed control at 100 ppm (Puccinia triticina; 24 h, 1DP (1 Day Protectant)): > 70%; pest or weed control at 100 ppm (Puccinia triticina; 72 h, 3DC (3 Day Curative)): > 70%
23 | COc1ccnc(C(=O)N[C@H]2COC[C@H](Oc3ccccc3)[C@@H](CCC(C)C)[C@H](C)OC2=O)c1OCOC(C)=O [Compound 32] | 44 to 50 | > 70 | > 70 | > 70 | > 70 | 
24 | CCCC[C@H]1[C@H](C)OC(=O)[C@@H](NC(=O)c2nccc(OC)c2OCOC(C)=O)COC[C@@H]1Oc1ccccc1 [Compound 44] |  | > 70 | > 70 | > 70 | > 70 | 
